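Each compound was tested at five concentrations against cells in 96-well plates for 48 hours. Definition used: TGI = concentration required for complete inhibition of growth.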
Tests used:
Assay in all cases: NCI-60 cell line screen, 48 h
A549 NSCLC = tested on: A549 NSCLC
MALME-3M melanoma = tested on: MALME-3M melanoma
COLO 205 colon = tested on: COLO 205 colon
SK-OV-3 ovarian = tested on: SK-OV-3 ovarian
HCT-116 colon = tested on: HCT-116 colon
HOP-62 NSCLC = tested on: HOP-62 NSCLC
SF-295 CNS = tested on: SF-295 CNS
OVCAR-3 ovarian = tested on: OVCAR-3 ovarian
NCI-H522 lung = tested on: NCI-H522 lung
K-562 leukemia = tested on: K-562 leukemia
KM12 colon = tested on: KM12 colon
NCI-H226 lung = tested on: NCI-H226 lung
U251 CNS = tested on: U251 CNS
SF-268 CNS = tested on: SF-268 CNS
SF-539 CNS = tested on: SF-539 CNS
SK-MEL-28 melanoma = tested on: SK-MEL-28 melanoma
PC-3 prostate = tested on: PC-3 prostate
HS 578T breast = tested on: HS 578T breast
NCI/ADR-RES ovarian = tested on: NCI/ADR-RES ovarian

Row | SMILES | TGI (A549 NSCLC) [µM] | TGI (MALME-3M melanoma) [µM] | TGI (COLO 205 colon) [µM] | TGI (SK-OV-3 ovarian) [µM] | TGI (HCT-116 colon) [µM] | TGI (HOP-62 NSCLC) [µM] | TGI (SF-295 CNS) [µM] | TGI (OVCAR-3 ovarian) [µM] | TGI (NCI-H522 lung) [µM] | TGI (K-562 leukemia) [µM] | TGI (KM12 colon) [µM] | TGI (NCI-H226 lung) [µM] | TGI (U251 CNS) [µM] | TGI (SF-268 CNS) [µM] | TGI (SF-539 CNS) [µM] | TGI (SK-MEL-28 melanoma) [µM] | TGI (PC-3 prostate) [µM] | TGI (HS 578T breast) [µM] | TGI (NCI/ADR-RES ovarian) [µM]
1 | COc1cc2c(cc1OC)C(O)[C@H](Br)C(C)(C)O2 (some centres not stated) | > 100 | > 100 | > 100 | > 100 | > 100 | > 100 | > 100 | > 100 | > 100 | > 100 | > 100 | > 100 | > 100 | > 100 | > 100 | > 100 | – | – | –
2 | Cc1cccc(NC(=O)/C=C/c2ccc(N(CCC#N)CCC#N)cc2C)c1 | > 100 | > 100 | > 100 | > 100 | > 100 | > 100 | > 100 | > 100 | > 100 | > 100 | > 100 | > 100 | > 100 | > 100 | > 100 | > 100 | – | – | –
3 | Clc1ccc(-c2c(C3=NCCN3)nnn2-c2ccc(Cl)cc2)cc1 | > 100 | 33.9 | 25.4 | 93.3 | 32.3 | > 100 | 38.9 | > 100 | 30.1 | 35.9 | 56.3 | > 100 | 45.2 | > 100 | 34.2 | 52.5 | – | – | –
4 | O=c1cc(-c2ccccc2)[nH]c2cc3c(cc12)OCO3 | > 100 | > 82.9 | 65.7 | 26 | > 29.8 | > 90.3 | > 42.3 | 22.2 | 13.4 | > 100 | > 93.1 | 27.5 | > 82.3 | > 17.5 | 18.8 | > 100 | > 100 | > 100 | –
5 | O=[N+]([O-])c1ccc(-n2nnc(C3=NCCCN3)c2-c2ccc(Cl)cc2)cc1 | > 100 | > 100 | > 100 | > 100 | > 100 | > 100 | > 100 | > 100 | > 100 | > 100 | > 100 | > 100 | > 100 | > 100 | > 100 | > 100 | – | – | –
6 | Cc1cccc2c1Oc1cc(Cl)ccc1C2NC(=O)CCN1CCOCC1 (configuration not stated) | > 100 | – | > 100 | > 100 | > 100 | > 100 | > 100 | > 100 | > 100 | > 100 | > 100 | – | > 100 | > 100 | > 100 | > 100 | > 100 | – | > 100
7 | N#C/C(=C\c1ccc(O)c(O)c1)C(N)=O | > 100 | > 100 | > 100 | > 100 | 67.9 | > 100 | > 100 | 86.1 | 53.3 | > 100 | > 100 | > 100 | > 100 | > 100 | > 100 | > 100 | – | – | –
8 | Nc1ccc(C(=O)NN2C(=O)C(Cl)C2c2ccccc2Cl)cc1 (configuration not stated) | 27.8 | 31.4 | 28.1 | 29.6 | 16.3 | 35.4 | 12.6 | 26.9 | 3.13 | – | 24.5 | 31.5 | 24.7 | 15.2 | 20.2 | 28.3 | – | – | –
9 | Cc1ccc2c(c1CCCC(C)(C)O)C(=O)C(=O)C(C(C)C)=C2O | > 100 | > 100 | > 100 | > 100 | > 100 | – | > 100 | > 100 | > 100 | > 100 | > 100 | > 100 | > 100 | > 100 | > 100 | > 100 | – | – | –
10 | COc1ccccc1NC(=O)C1=C(C)NC(C)=C(C(=O)Nc2ccccc2OC)C1c1ccc([N+](=O)[O-])cc1 | > 100 | > 100 | > 100 | > 100 | > 100 | > 100 | 55.9 | > 100 | > 100 | > 100 | > 100 | > 100 | > 100 | > 100 | > 100 | > 100 | – | – | –
11 | Cc1cn2c(=O)c3ccccc3nc2s1 | > 100 | > 100 | > 100 | > 100 | > 100 | > 100 | > 100 | > 100 | > 100 | > 100 | > 100 | > 100 | > 100 | > 100 | > 100 | > 100 | – | – | –
12 | COC(=O)C12C3C4C5(C(=O)OC)C(C1C35C(=O)N(C(C)C)C(C)C)C42C(=O)N(C(C)C)C(C)C (configuration not stated) | > 50 | > 50 | > 50 | > 50 | 33.6 | > 50 | > 50 | > 50 | > 50 | > 50 | > 50 | > 50 | > 50 | > 50 | > 50 | > 50 | – | – | –
13 | O=C(CCC/C(CC(=O)c1ccc(Br)cc1)=N\O)Nc1ccccc1 | > 100 | > 100 | > 100 | – | > 100 | > 100 | > 100 | > 100 | – | – | > 100 | > 100 | > 100 | > 100 | – | > 100 | – | – | –
14 | O=C(CN1CCCCC1)N1CCc2c([nH]c3ccccc23)C1c1cccnc1 (configuration not stated) | > 100 | – | – | > 100 | > 100 | > 100 | > 100 | > 100 | > 100 | > 100 | > 100 | – | > 100 | > 100 | > 100 | > 100 | – | – | –
